Broadly, the melting point is the temperature, or range, at which the solid turns liquid.

Regarding `c1ccc(-c2nc(Nc3nccs3)c3ccccc3n2)cc1` [II-34, (2-Phenyl-quinazolin-4-yl)-(thiazol-2-yl)-amine], the melting point lay within 219 to 221 °C.

On to `Cc1cnc(Nc2nc(-c3ccccc3)nc3ccccc23)s1` [II-35, (5-Methyl-thiazol-2-yl)-(2-phenyl-quinazolin-4-yl)-amine], for which the melting point lay within 215 to 216 °C.

Turning to `c1ccc(-c2nc(Nc3ncc(C4CC4)s3)c3ccccc3n2)cc1` [II-36, (5-Cyclopropyl-thiazol-2-yl)-(2-phenyl-quinazolin-4-yl)-amine], the melting point lay in the range of 161 to 162 °C.

(Values after patent US6846928B2, “Compositions useful as inhibitors of protein kinases” (Vertex Pharmaceuticals Incorporated, priority 2002, dated 2005).)
